Source: patent US20070196361A1, “Long term administration of pharmacologically active agents” (priority 1999, published 2007)

Columns and labels:
[1] = test system: tumor cell lines; settings: cited from earlier work
[2] = test system: cancers responsive to paclitaxel; assay: Long term administration of paclitaxel at sub-therapeutic dose levels in cancer treatment; format: in vivo
From the text: In rapidly dividing cells as in a tumor, different cells are in different phases of the cell cycle at any given time.
The entire dose is usually given on the first day of the 3 week cycle.

**Q.** What does the source list for `CC(=O)O[C@H]1C(=O)[C@@]2(C)[C@H]([C@H](OC(=O)c3ccccc3)[C@]3(O)C[C@H](OC(=O)[C@H](O)[C@@H](NC(=O)c4ccccc4)c4ccccc4)C(C)=C1C3(C)C)[C@]1(OC(C)=O)CO[C@@H]1C[C@@H]2O` [paclitaxel]?
**A.** concentration at which paclitaxel is active on tumor cell lines ([1]; in vitro, tumor cell lines): ~0.5 µg/mL; levels high enough to be cytotoxic to the tumor cells ([1]; tumor cells of the cancer being treated): 500 to 1000 ng/mL; benefit in the treatment of cancers responsive to paclitaxel ([2]; continuous administration over 3 weeks, total cumulative dose e.g. 50-150 mg/m^2): significant benefit is obtained; benefit in the treatment of cancers responsive to paclitaxel ([2]; plasma levels maintained at 0.01-0.05 μg/ml over a week or longer): significant benefit is obtained
